For data set [1], the system named is Scn1a +/− mice. Put plainly: Hyperthermia‐induced seizures. The data set is classed as in vivo, mouse. To be noted: for Effect on hyperthermia‐induced seizure response: single‐point ip doses targeting human therapeutic range (Table 1).
The subject of data set [2] is Scn1a +/− mice. Put plainly: Survival analysis. Conditions: for Mice surviving through P30: naïve mice, chow treatment from P18, untreated 67% (14/21). The data set is classed as in vivo, mouse.
Data set [3] has as its system Dravet syndrome patients. Put plainly: Retrospective chart review of anticonvulsant responses in Dravet syndrome. The data set is classed as in vivo, human. To be noted: for Patients with effective response with tolerable side effects / Effectiveness in Dravet syndrome cohort: patient or parent‐reported.
Data set [4] can be described thus: Pharmacokinetic analysis of clobazam and stiripentol after a single ip injection. The data set is classed as in vivo, Wild‐type and Scn1a +/− mice.
The test system of data set [5] is Scn1a +/− mice. Put plainly: Spontaneous seizure. The format is in vivo, mouse. To be noted: for Effect on spontaneous GTCS frequency: subchronic treatment in chow, naïve mice, 60 h recording.
In data set [6] the test system is Scn1a +/− mice. The experiment in a line: Spontaneous GTCS following hyperthermic seizure priming. To be noted: hyperthermia‐primed, clobazam 160 mg/kg chow, 60 h P19–P21 (4/16); untreated 61%. The data set is classed as in vivo, mouse.
The nature of data set [7]: Plasma drug concentration after subchronic oral treatment in chow. To be noted: for Subchronic treatment plasma concentration: mg/kg chow: carbamazepine 7500, clobazam 160 (NCLB = metabolite after clobazam), lamotrigine 125, levetiracetam 1350, phenobarbital 300, stiripentol 4000, topiramate 850, valproic acid 4500, mean ± SEM, n = 5–8.
Where [8] appears, read: single ip 10 mg/kg clobazam, analyte = labelled substance.

`NC(=O)N1c2ccccc2C=Cc2ccccc21` [Carbamazepine]: the “Effect on hyperthermia‐induced seizure response” value in data set [1] is on record as “no effect”. The “Mice surviving through P30” value in data set [2] is given as 100%. Besides, in data set [3] (Dravet syndrome cohort), the “Patients with significant worsening of seizures” value is listed as “approximately 50%” and the “Patients with significant worsening of seizures (patients/patients trialed)” value is recorded as 16/32.
Usually AUC(0-inf) stands for total exposure, with the tail of the curve extrapolated. A high value points to more exposure. A word on the half-life: it is the time in which the quantity being followed falls by half. For `CN1C(=O)CC(=O)N(c2ccccc2)c2cc(Cl)ccc21` [Clobazam], in data set [4] (mouse, plasma, ip, 10 mg/kg), the AUC(0-inf) was 2.58 µg·h/mL and the half-life is 0.633 h. The “Protection from hyperthermia‐induced GTCS” value (“Protection” below) in data set [1] (clobazam 0.1 mg/kg ip, P14–P16) was 37.5%. The “Protection” value in data set [1] (clobazam 1 mg/kg ip) was 50%. The “Protection” value in data set [1] (clobazam 10 mg/kg ip) is “Complete protection”. Also, in data set [5], the “Effect on spontaneous GTCS frequency” value is recorded as “did not result in a statistically significant change”. Also, the “Mice exhibiting spontaneous GTCS” value in data set [6] came out at 25%. In addition, in data set [3] (Dravet syndrome cohort), the “Cases with seizure reduction” value is around 75% and the “Patients with effective response with tolerable side effects” value (“Patients with effective response” below) is given as above 50%. In addition, the “Subchronic treatment plasma concentration” value in data set [7] is “BQL”.
As for `Nc1nnc(-c2cccc(Cl)c2Cl)c(N)n1` [Lamotrigine], in data set [1] (lamotrigine 20 mg/kg ip, 12 mice, vehicle 10 of 12), the “Mice that experienced a hyperthermia‐induced GTCS” value worked out at 12 mice. In data set [1] (lamotrigine 20 mg/kg ip, vehicle C 41.8 ± 0.1), the “Threshold temperature for hyperthermia‐induced GTCS” value was 40.5 ± 0.3 °C. In data set [1], the “Effect on hyperthermia‐induced seizure response” value was “significantly worsened”. The “Seizures that escalated to tonic hindlimb extension” value in data set [5] (naïve cohort, lamotrigine chow, untreated 33% (17/52)) is given as “None of the 155 seizures”. In data set [5], the “Effect on spontaneous GTCS frequency” value is on record as “significantly worsened”. The “Survival through P42 (6‐week survival)” value in data set [2] (lamotrigine chow from P18, untreated 68% (15/22)) was “completely prevented lethality”. In addition, in data set [3] (Dravet syndrome cohort), the “Patients with significant worsening of seizures” value was “approximately 50%” and the “Patients with significant worsening of seizures (patients/patients trialed)” value was 25/50.
On to `CC[C@@H](C(N)=O)N1CCCC1=O` [Levetiracetam], for which the “Effect on spontaneous GTCS frequency” value in data set [5] was “did not result in a statistically significant change”. The “Mice surviving through P30” value in data set [2] is given as 100%. The “Effectiveness in Dravet syndrome cohort” value in data set [3] is “limited effectiveness”.
For the compound `O=C1CC(=O)N(c2ccccc2)c2cc(Cl)ccc2N1` [NCLB, N‐desmethylclobazam], in data set [4] (setting [8]), the Cmax in plasma came out at 3100 ng/mL and the tmax amounted to 1.5 h. In addition, in data set [7], the “Subchronic treatment plasma concentration” value came out at 0.6 ± 0.03 µg/mL.
Regarding `CCC1(c2ccccc2)C(=O)NC(=O)NC1=O` [Phenobarbital], in data set [5], the “Effect on spontaneous GTCS frequency” value was “did not result in a statistically significant change”. In addition, the “Effectiveness in Dravet syndrome cohort” value in data set [3] was “limited effectiveness”. The concentration at 24 h in data set [7] (mouse, plasma, oral, 300 mg per kg of chow, Plasma level, hyperthermia‐primed mice, phenobarbital chow, 24 h post seizure induction, primed) is 17800 ± 3200 ng/mL.
As for `O=C1NC(=O)C(c2ccccc2)(c2ccccc2)N1` [Phenytoin], the “Effect on hyperthermia‐induced seizure response” value in data set [1] is recorded as “no effect”. Also, in data set [3] (Dravet syndrome cohort), the “Patients with significant worsening of seizures” value is “approximately 50%” and the “Patients with significant worsening of seizures (patients/patients trialed)” value is 15/31.
As usually defined, the Cmax is the highest concentration seen after dosing. In data set [4] (mouse, plasma, ip, 100 mg/kg), `CC(C)(C)C(O)/C=C/c1ccc2c(c1)OCO2` (stereo not shown) [Stiripentol] showed an AUC(0-inf) of 210 µg·h/mL, a Cmax of 46000 ng/mL, a half-life of 2.82 h and a tmax of 1.5 h. For the same compound, in data set [1], the “Effect on hyperthermia‐induced seizure response” value is “no effect”. The “Effect on hyperthermia seizure threshold temperature vs vehicle” value in data set [1] (stiripentol 100 mg/kg ip) is given as “increased threshold temperature”. In addition, the “Protected from hyperthermia‐induced GTCS” value in data set [1] (stiripentol 300 mg/kg ip (3/13)) is listed as 23%. In addition, the “Patients with effective response” value in data set [3] (Dravet syndrome cohort) is on record as above 50%.
For the compound `CC1(C)O[C@@H]2[C@@H](CO[C@@]3(COS(N)(=O)=O)OC(C)(C)O[C@@H]23)O1` [Topiramate], the “Effect on hyperthermia‐induced seizure response” value in data set [1] was “no effect”. Besides, the “Mice surviving through P30” value in data set [2] turned out to be 100%. Also, in data set [3] (Dravet syndrome cohort), the “Patients with effective response” value is given as “less than 45%”.
In the case of `CCCC(CCC)C(=O)O` [Valproic Acid], in data set [1], the “Effect on hyperthermia‐induced seizure response” value is reported as “no effect”. Further, the “Protection” value was determined as 30% in data set [1] (valproic acid 100 mg/kg ip), 50% in data set [1] (valproic acid 200 mg/kg ip) and 100% in data set [1] (valproic acid 300 mg/kg ip). The “Effect on spontaneous GTCS frequency” value in data set [5] is given as “did not result in a statistically significant change”. Besides, in data set [3] (Dravet syndrome cohort), the “Patients with effective response” value is above 50%.
Turning to `NS(=O)(=O)Cc1noc2ccccc12` [Zonisamide], the “Effectiveness in Dravet syndrome cohort” value in data set [3] was “limited effectiveness”.
With `O=C1CN=C(c2ccccc2Cl)c2cc([N+](=O)[O-])ccc2N1` [clonazepam], the “Patients with effective response” value in data set [3] (Dravet syndrome cohort) is “less than 45%”.
For `NC(=O)N1c2ccccc2CC(=O)c2ccccc21` [oxcarbazepine], in data set [3] (Dravet syndrome cohort), the “Patients with significant worsening of seizures” value is listed as “approximately 50%” and the “Patients with significant worsening of seizures (patients/patients trialed)” value is 28/50.

Values taken from PMC5420810 (Annals of Clinical and Translational Neurology, 2017).
